Assays:
[1] = system: nitric oxide (NO) production; assay: NO production assay in LPS-stimulated peritoneal macrophages (Griess reagent); assay type: cell-based, mice; details: CBD alone, 0.05 µM to 50 µM (FIG. 1)
Method: Macrophage isolation and cell culture - Peritoneal macrophages were collected from the peritoneal cavity of 6-8-week-old male ICR mice (Harlan, Israel) given an intraperitoneal injection of 1.5 ml of thioglycollate broth (4%) 4 days before harvest. Peritoneal macrophages were washed three times with PBS and if needed a hypotonic lysis of erythrocytes was performed, yielding 90-95% purity. The macrophages were identified by fluorescence-activated cell sorting (FACS) analysis using FITC-conjugated rat antimouse F4/80 (MCA497F; Serotec, Oxford, England) by flow microfluorimetry on FACS (Becton Dickinson, Mountain View, CA). For each sample, 10,000 light scatter-gated viable cells were analyzed. […]
To the control groups, appropriate volumes of DMSO (0.1-0.2%) were added. The percent inhibition of each experimental group was calculated comparatively to the relevant and corresponding control.
NO production assay —NO levels in supernatants of cell cultures were determined by assaying nitrite levels using Griess reagent and sodium nitrite as a standard.
Peritoneal macrophages were incubated with the compounds 1 h before addition of LPS and cultured overnight. NO production was determined in the supernatant of the cultures and the % of inhibition from untreated macrophages was determined. […]

[2] = system: Macrophages; assay: MTT cell viability assay with CBD; assay type: cell-based; details: increasing CBD concentrations (FIG. 2)
Method: FIG. 2 includes a vertical bar graph showing the effect of CBD on cell viability. MTT assay was performed in the presence of increasing CBD concentrations.
The inventors initially examined the sole effect of cannabidiol (CBD) on nitric oxide (NO) production. Macrophages were stimulated, and NO production was examined in the presence of increasing CBD concentrations, ranging from 0.05 µM to 50 µM.

[3] = system: nitric oxide (NO); assay: NO production in bone marrow derived macrophages treated with an inflammatory stimulus (lycopene, CBDA); assay type: cell-based; details: CBDA alone, 2.5 µM, 5 µM, 10 µM (FIG. 8A)
Method: Bone marrow derived macrophages were treated with an inflammatory stimulus in the presence of various concentration of lycopene, cannabidiolic acid (CBDA), tomato extract and hemp extract in vitro. As an inflammatory outcome, nitric oxide (NO) was monitored.
Full Study with test material and benchmarks - Cells were treated with tomato and hemp extract for 24 hours to determine viability. Cells were then treated as follows; (1) medium alone (unstimulated control), (2) LPS stimulation- 10 µg/mL, (3) each crude extracts (Tomato/Hemp) at concentration of IC50, (4) LPS + crude extracts, (5) control inhibitor, and (6) LPS + control inhibitor. The tomato and hemp extract and benchmarks (lycopene, CBDA) were tested in 5 different rations; 1:10, 1:5, 1:1, 5:1, 10:1.
Nitric oxide production was determined for each treatment.

Row | SMILES | % of NO production inhibition [1] | CBD concentration toxic to the cells (cell viability, MTT) [2] [µM] | inhibition of NO production [3]
1 | C=C(C)[C@@H]1CCC(C)=C[C@H]1c1c(O)cc(CCCCC)cc1O [CBD, 2-[(6R)-3-Methyl-6-prop-l-en-2-yl-lcyclohex-2-envyl]-5pentylbenzene-l,3-diol] | increased in a CBD dose-dependent manner | ≥ 25 | –
2 | C=C(C)[C@@H]1CCC(C)=C[C@H]1c1c(O)cc(CCCCC)c(C(=O)O)c1O [CBDA, cannabidiolic acid] | – | – | inhibits NO production in a dose dependent manner
